Reference: article PMC9578396, “Intrinsic Antibacterial Activity of Xeruborbactam In Vitro: Assessing Spectrum and Mode of Action” (Antimicrobial Agents and Chemotherapy, 2022)
In brackets after ≈: the same amount, converted by molar mass. Like-named read-outs stand apart in the source and are kept apart here.

Tests used:
Staphylococcus aureus = assay: MIC, Staphylococcus aureus (MSSA, MRSA); type: cell-based
Text: Bacterial isolates were subjected to broth microdilution susceptibility testing, performed according to Clinical and Laboratory Standards Institute (CLSI) methods ([46]), using panels prepared in-house. Meropenem was purchased from Sandoz, and all other antibiotics were from Sigma-Aldrich. Xeruborbactam was synthesized at Qpex Biopharma, San Diego, CA. Avibactam was purchased from eNovation Chemicals LLC, Bridgewater, NJ, USA; zidebactam was from MedKoo Biosciences, Inc., Morrisville, NC, and nacubactam was from Advanced ChemBlocks, Hayward, CA. Durlobactam was synthesized at Acme Bioscience, Palo Alto, CA, USA.

PBP1b = target: T1, PBP1b (Escherichia coli, UniProt P02919); assay: Gel-based Bocillin FL competition PBP binding assay
T1 construct: endogenous in cells; host or cells: Escherichia coli ECM5497 (MG1655), total membrane preparation
Protocol: (§1) Ten milliliters of overnight bacterial culture was inoculated in 1 L of LB medium and grown to an OD600 of 0.7 to 0.9. The cell pellet was washed once with 50 mL of solution containing 100 mM Na-phosphate at pH 7.0 and 100 mM NaCl and resuspended in 10 mL of the same buffer with one tablet of EDTA-free mini-protease inhibitor and 10 mg of lysozyme. Cell suspensions were incubated for 45 min at 37°C, and then 200 μL of DNase I was added along with MgSO4 (to a final concentration of 10 mM), followed by three cycles of freeze-thawing (10 min and 20 min, respectively). Four cycles of sonication at maximum power were performed next, each cycle lasting for 30 s with 1 min on ice between cycles. The cell suspension was centrifuged at 12,000 × g for 10 min at 4°C. The supernatant was collected and centrifuged at 100,000 × g for 45 min at 4°C. The pellet was washed three times with 10 mL of 100 mM Na-phosphate, pH 7.0, by resuspension and subsequent centrifugation at 100,000 × g for 10 min at 4°C. The pellet was finally resuspended in 1.5 mL of 100 mM Na-phosphate, pH 7.0, and passed several times through a Dounce homogenizer (tight pestle). Membrane preparations were aliquoted and kept at −80°C.
(§2) Five microliters of total bacterial membrane preparation was mixed with 5 μL of a test compound at a desired concentration in 100 mM Na-phosphate buffer, pH 7.0. Incubation of bacterial membrane preparations with control beta-lactams was performed for 10 min at 30°C; xeruborbactam was incubated with membrane preparations for 1 h at 30°C. Five microliters of 150 μM Bocillin FL fluorescent probe (Thermo Fisher Scientific) was added, and the reaction mixture was incubated for an additional 10 min at 30°C in the case of beta-lactams or for 20 min on ice (0°C) in the case of xeruborbactam. We believe that the 0°C temperature is required to prevent displacement of xeruborbactam from its complex by the Bocillin probe. At the end of the incubation step, 15 μL of 2× SDS sample loading buffer was added, and the reaction mixture was incubated for 5 min at 95°C. Twenty-five microliters of the reaction mixture was then loaded on an 8% SDS Tris-glycine gel (Thermo Fisher Scientific). At the end of the run, the gel was briefly rinsed with water and fixed in 10% acetic acid, 40% methanol for 20 min. After an additional wash in water for 30 min, the gel was scanned on a Typhoon Trio+ Imager using a blue laser filter (excitation, 488 nm, and emission, 520 nm). Densitometry of the gel images was performed using ImageQuant software (Molecular Dynamics). IC50 values were calculated with Prism software (GraphPad).

PBP3 [1] = target: PBP3 (Klebsiella pneumoniae, UniProt A0A0H3GN85); assay: as above
Protocol: as §1, §2

PBP2 = PBP2 (Klebsiella pneumoniae, UniProt A6T696); assay: as above
Protocol: as §1, §2

PBP3 [2] = target: PBP3 (Acinetobacter baumannii, UniProt A0ABX6CK25); assay: as above
Protocol: as §1, §2

PBP1a [3] = target: PBP1a (Acinetobacter baumannii, UniProt A0ABX6CK30); assay: as above
Protocol: as §1, §2

PBP1a [4] = target: PBP1a (Klebsiella pneumoniae, UniProt A0A0H3GZF1); assay: as above
Protocol: as §1, §2

PBP1a [5] = target: T2, PBP1a (Escherichia coli, UniProt P02918); assay: as above
T2 construct: endogenous in cells; host or cells: Escherichia coli ECM5497 (MG1655), total membrane preparation
Protocol: as §1, §2

[6] = Staphylococcus aureus, ATCC 29213 / MSSA, ATCC 29213, MSSA, read-out: MIC
[7] = Staphylococcus aureus, MRSA, sa001, MRSA, read-out: MIC
[8] = Staphylococcus aureus, MRSA, sa010, MRSA, read-out: MIC
[9] = Staphylococcus aureus, MRSA, sa013, MRSA, read-out: MIC
[10] = Staphylococcus aureus, MRSA, sa014, MRSA, read-out: MIC
[11] = Staphylococcus aureus, MRSA, sa148, MRSA, read-out: MIC
[12] = Staphylococcus aureus, MRSA, sa150, MRSA, read-out: MIC
[13] = Staphylococcus aureus, MRSA, sa151, MRSA, read-out: MIC
[14] = Staphylococcus aureus, MRSA, sa152, MRSA, read-out: MIC
[15] = Staphylococcus aureus, MRSA, sa153, MRSA, read-out: MIC
[16] = Staphylococcus aureus, MRSA, sa278, MRSA, read-out: MIC
[17] = Staphylococcus aureus, MRSA, sa279, MRSA, read-out: MIC
[18] = Staphylococcus aureus, MRSA, sa280, MRSA, read-out: MIC
[19] = Staphylococcus aureus, MRSA, sa281, MRSA, read-out: MIC
[20] = Staphylococcus aureus, MSSA, sa007, MSSA, read-out: MIC
[21] = Staphylococcus aureus, MSSA, sa015, MSSA, read-out: MIC
[22] = Staphylococcus aureus, MSSA, n = 12

Chain of PBP1a (Acinetobacter baumannii, UniProt A0ABX6CK30) (A0ABX6CK30 entry or part of it): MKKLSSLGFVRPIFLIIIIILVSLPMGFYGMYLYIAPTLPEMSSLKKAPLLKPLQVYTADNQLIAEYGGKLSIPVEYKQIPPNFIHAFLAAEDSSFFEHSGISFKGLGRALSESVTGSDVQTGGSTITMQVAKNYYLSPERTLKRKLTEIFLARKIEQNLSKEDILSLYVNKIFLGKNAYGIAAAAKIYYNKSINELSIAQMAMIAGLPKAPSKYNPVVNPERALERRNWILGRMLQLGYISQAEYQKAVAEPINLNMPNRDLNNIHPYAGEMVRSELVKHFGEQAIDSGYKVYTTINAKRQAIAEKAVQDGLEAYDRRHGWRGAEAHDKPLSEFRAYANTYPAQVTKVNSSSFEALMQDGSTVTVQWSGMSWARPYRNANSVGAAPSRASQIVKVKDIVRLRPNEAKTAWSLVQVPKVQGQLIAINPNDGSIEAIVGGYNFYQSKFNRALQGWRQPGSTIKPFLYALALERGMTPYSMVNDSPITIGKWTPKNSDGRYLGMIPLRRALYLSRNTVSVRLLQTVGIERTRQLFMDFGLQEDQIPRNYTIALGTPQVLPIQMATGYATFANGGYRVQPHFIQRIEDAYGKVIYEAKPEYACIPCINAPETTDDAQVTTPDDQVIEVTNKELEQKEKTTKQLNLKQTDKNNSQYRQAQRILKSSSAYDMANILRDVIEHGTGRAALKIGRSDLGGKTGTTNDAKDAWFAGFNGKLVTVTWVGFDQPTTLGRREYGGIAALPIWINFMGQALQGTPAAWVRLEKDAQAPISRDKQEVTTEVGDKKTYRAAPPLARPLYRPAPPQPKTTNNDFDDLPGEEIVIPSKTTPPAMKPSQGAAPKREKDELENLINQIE
Chain of PBP1a (Klebsiella pneumoniae, UniProt A0A0H3GZF1) (A0A0H3GZF1 entry or part of it): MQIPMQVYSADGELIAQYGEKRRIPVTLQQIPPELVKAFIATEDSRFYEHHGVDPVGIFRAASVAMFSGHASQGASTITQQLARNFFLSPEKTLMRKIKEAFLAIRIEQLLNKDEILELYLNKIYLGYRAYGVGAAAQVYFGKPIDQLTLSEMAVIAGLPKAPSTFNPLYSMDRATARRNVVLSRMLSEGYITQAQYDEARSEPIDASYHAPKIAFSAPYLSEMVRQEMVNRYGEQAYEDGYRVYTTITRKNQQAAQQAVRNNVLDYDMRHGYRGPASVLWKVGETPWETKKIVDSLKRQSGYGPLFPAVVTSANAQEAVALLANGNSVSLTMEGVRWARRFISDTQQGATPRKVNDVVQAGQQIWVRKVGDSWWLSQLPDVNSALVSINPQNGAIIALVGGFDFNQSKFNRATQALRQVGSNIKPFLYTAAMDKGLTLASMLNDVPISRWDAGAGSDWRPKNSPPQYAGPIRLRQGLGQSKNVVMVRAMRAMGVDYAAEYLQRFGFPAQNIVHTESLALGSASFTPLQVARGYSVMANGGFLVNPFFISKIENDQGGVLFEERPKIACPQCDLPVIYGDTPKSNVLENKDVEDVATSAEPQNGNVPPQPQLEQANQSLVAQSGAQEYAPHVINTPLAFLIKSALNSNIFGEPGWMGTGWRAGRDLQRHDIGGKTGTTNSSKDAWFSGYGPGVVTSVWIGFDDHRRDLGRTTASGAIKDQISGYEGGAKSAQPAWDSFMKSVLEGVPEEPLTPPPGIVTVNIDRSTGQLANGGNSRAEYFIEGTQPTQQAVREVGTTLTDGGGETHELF
T2 sequence (P02918 whole entry): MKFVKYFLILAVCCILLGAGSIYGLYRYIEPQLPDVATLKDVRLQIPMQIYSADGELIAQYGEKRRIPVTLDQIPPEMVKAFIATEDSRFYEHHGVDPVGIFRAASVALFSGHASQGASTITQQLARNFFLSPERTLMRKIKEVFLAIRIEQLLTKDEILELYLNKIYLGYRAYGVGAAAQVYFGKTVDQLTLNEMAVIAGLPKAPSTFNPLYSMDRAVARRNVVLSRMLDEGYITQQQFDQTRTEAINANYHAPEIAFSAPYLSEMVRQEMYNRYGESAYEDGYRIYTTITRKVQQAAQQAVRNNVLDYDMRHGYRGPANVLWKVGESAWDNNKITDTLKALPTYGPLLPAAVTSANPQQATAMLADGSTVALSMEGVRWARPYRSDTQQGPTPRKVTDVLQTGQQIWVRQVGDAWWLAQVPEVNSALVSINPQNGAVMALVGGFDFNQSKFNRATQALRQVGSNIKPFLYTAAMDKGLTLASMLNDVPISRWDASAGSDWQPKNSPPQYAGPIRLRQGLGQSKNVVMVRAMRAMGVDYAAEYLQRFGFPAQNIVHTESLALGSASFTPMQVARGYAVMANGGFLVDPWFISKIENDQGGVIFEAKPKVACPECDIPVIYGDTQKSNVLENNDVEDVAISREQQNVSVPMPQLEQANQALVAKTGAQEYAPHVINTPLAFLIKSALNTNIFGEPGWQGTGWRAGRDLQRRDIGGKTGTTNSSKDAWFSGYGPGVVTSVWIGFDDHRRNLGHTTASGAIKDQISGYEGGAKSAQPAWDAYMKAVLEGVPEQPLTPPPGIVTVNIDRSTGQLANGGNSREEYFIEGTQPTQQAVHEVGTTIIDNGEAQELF
T1 sequence (P02919 whole entry): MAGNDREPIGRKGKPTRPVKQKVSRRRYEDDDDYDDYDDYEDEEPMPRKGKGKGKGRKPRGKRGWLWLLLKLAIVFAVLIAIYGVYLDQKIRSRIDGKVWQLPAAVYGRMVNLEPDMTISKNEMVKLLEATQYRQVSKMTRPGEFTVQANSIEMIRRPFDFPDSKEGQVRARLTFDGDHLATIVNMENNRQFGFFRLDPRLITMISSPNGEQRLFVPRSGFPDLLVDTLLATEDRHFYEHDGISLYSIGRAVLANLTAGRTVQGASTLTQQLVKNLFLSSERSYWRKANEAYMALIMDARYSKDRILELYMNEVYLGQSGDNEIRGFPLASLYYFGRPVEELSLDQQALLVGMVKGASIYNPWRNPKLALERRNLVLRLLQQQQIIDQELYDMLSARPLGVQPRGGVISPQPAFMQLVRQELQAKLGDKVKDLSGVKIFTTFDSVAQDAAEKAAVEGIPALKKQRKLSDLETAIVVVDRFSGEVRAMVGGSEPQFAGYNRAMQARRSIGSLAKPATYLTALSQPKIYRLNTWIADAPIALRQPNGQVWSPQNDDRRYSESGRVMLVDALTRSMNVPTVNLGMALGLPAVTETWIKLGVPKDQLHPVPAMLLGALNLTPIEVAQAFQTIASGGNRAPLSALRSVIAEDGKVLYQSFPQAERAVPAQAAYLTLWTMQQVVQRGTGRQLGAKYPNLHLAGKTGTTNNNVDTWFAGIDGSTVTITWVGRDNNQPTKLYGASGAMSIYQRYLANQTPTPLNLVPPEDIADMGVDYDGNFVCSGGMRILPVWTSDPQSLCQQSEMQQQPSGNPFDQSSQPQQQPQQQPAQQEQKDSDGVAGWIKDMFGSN
Chain of PBP2 (A6T696 entry or part of it): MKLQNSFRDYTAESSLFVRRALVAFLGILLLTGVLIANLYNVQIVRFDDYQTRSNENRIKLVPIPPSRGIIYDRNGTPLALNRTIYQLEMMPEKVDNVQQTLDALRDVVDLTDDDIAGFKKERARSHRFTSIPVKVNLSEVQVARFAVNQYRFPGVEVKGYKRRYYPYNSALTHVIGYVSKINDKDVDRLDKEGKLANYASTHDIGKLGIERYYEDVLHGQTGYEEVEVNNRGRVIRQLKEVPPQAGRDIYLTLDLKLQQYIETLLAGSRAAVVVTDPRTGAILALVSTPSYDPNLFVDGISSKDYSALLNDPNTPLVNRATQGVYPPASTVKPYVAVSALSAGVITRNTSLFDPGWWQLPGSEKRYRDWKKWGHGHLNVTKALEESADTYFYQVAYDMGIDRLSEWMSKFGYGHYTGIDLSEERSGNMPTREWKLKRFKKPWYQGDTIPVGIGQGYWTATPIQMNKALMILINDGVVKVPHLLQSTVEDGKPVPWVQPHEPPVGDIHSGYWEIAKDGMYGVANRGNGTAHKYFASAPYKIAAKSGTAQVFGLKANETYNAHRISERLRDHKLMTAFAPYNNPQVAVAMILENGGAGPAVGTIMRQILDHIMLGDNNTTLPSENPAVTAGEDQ
Chain of PBP3 (Klebsiella pneumoniae, UniProt A0A0H3GN85) (A0A0H3GN85 entry or part of it): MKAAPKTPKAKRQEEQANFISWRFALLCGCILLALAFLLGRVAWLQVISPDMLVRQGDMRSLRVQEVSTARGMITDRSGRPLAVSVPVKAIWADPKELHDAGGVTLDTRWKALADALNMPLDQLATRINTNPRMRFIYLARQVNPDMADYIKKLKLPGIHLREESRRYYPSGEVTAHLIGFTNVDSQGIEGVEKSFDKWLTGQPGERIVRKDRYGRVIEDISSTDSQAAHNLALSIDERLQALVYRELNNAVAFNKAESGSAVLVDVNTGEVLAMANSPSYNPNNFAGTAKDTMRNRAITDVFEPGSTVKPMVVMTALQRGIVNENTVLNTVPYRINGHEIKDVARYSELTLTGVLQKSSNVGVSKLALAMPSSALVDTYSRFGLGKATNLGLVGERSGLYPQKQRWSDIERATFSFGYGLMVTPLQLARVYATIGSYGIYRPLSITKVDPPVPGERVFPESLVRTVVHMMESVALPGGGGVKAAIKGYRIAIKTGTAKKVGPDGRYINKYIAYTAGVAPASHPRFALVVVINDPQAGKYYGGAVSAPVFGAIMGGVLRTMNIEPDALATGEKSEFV

C[C@@H](O)[C@H]1C(=O)N2C(C(=O)O)=C(S[C@@H]3CN[C@H](C(=O)N(C)C)C3)[C@H](C)[C@H]12 [Meropenem]
MIC (Staphylococcus aureus; [6]): 0.06 µg/mL (≈ 0.156 µM) | MIC (Staphylococcus aureus; [7]): 16 µg/mL (≈ 41.7 µM) | MIC (Staphylococcus aureus; [8]): 32 µg/mL (≈ 83.4 µM) | MIC (Staphylococcus aureus; [9]): 16 µg/mL (≈ 41.7 µM) | MIC (Staphylococcus aureus; [10]): 8 µg/mL (≈ 20.9 µM) | MIC (Staphylococcus aureus; [11]): 32 µg/mL (≈ 83.4 µM) | MIC (Staphylococcus aureus; [12]): 32 µg/mL (≈ 83.4 µM) | MIC (Staphylococcus aureus; [13]): 32 µg/mL (≈ 83.4 µM) | MIC (Staphylococcus aureus; [14]): 4 µg/mL (≈ 10.4 µM) | MIC (Staphylococcus aureus; [15]): 32 µg/mL (≈ 83.4 µM) | MIC (Staphylococcus aureus; [16]): 32 µg/mL (≈ 83.4 µM) | MIC (Staphylococcus aureus; [17]): 4 µg/mL (≈ 10.4 µM) | MIC (Staphylococcus aureus; [18]): 4 µg/mL (≈ 10.4 µM) | MIC (Staphylococcus aureus; [19]): 32 µg/mL (≈ 83.4 µM) | MIC (Staphylococcus aureus; Staphylococcus aureus, MSSA): 0.125 µg/mL (≈ 0.326 µM) | MIC (Staphylococcus aureus; [20]): 0.25 µg/mL (≈ 0.652 µM) | MIC (Staphylococcus aureus; [21]): 0.25 µg/mL (≈ 0.652 µM) | MIC (Staphylococcus aureus; sa002, MSSA): 0.125 µg/mL (≈ 0.326 µM) | MIC (Staphylococcus aureus; sa003, MSSA): 0.125 µg/mL (≈ 0.326 µM) | MIC (Staphylococcus aureus; sa004, MSSA): 0.125 µg/mL (≈ 0.326 µM) | MIC (Staphylococcus aureus; sa005, MSSA): 0.125 µg/mL (≈ 0.326 µM) | MIC (Staphylococcus aureus; sa006, MSSA): 0.125 µg/mL (≈ 0.326 µM) | MIC (Staphylococcus aureus; sa008, MSSA): 0.125 µg/mL (≈ 0.326 µM) | MIC (Staphylococcus aureus; sa009, MSSA): 0.125 µg/mL (≈ 0.326 µM) | MIC (Staphylococcus aureus; sa012, MSSA): 0.125 µg/mL (≈ 0.326 µM) | IC50 (PBP1b): 21.1 µM | IC50 (PBP3 [1]; read-out: Relative binding IC50, PBP3; K. pneumoniae KPM1001 membranes; Bocillin FL step 0°C for xeruborbactam, 30°C for beta-lactams): 0.24 µM | IC50 (PBP2): 0.003 µM | IC50 (PBP3 [2]; read-out: Relative binding IC50, PBP3; A. baumannii ACM1320 membranes; Bocillin FL step 0°C for xeruborbactam, 30°C for beta-lactams): 0.19 µM | IC50 (PBP1a [3]; read-out: Relative binding IC50, PBP1a; A. baumannii ACM1320 membranes; Bocillin FL step 0°C for xeruborbactam, 30°C for beta-lactams): 70 nM | IC50 (PBP1a [4]; read-out: Relative binding IC50, PBP1a; K. pneumoniae KPM1001 membranes; Bocillin FL step 0°C for xeruborbactam, 30°C for beta-lactams): 6.6 µM | IC50 (PBP1a [5]): 5.4 µM

O=C(O)c1c(F)ccc2c1OB(O)[C@@H]1C[C@H]21 [Xeruborbactam]
MIC range (Staphylococcus aureus; MSSA, n = 12): 4 to 8 µg/mL | MIC (Staphylococcus aureus; [6]): 4 µg/mL (≈ 18 µM) | MIC (Staphylococcus aureus; Staphylococcus aureus, MRSA, all the MRSA strains, n = 13, read-out: MIC): > 32 µg/mL | MIC (Staphylococcus aureus; [7]): > 32 µg/mL | MIC (Staphylococcus aureus; [8]): > 32 µg/mL | MIC (Staphylococcus aureus; [9]): > 32 µg/mL | MIC (Staphylococcus aureus; [10]): > 32 µg/mL | MIC (Staphylococcus aureus; [11]): > 32 µg/mL | MIC (Staphylococcus aureus; [12]): > 32 µg/mL | MIC (Staphylococcus aureus; [13]): > 32 µg/mL | MIC (Staphylococcus aureus; [14]): > 32 µg/mL | MIC (Staphylococcus aureus; [15]): > 32 µg/mL | MIC (Staphylococcus aureus; [16]): > 32 µg/mL | MIC (Staphylococcus aureus; [17]): > 32 µg/mL | MIC (Staphylococcus aureus; [18]): > 32 µg/mL | MIC (Staphylococcus aureus; [19]): > 32 µg/mL | MIC (Staphylococcus aureus; Staphylococcus aureus, MSSA, sa002, MSSA, read-out: MIC): 8 µg/mL (≈ 36 µM) | MIC (Staphylococcus aureus; Staphylococcus aureus, MSSA, sa003, MSSA, read-out: MIC): 8 µg/mL (≈ 36 µM) | MIC (Staphylococcus aureus; Staphylococcus aureus, MSSA, sa004, MSSA, read-out: MIC): 8 µg/mL (≈ 36 µM) | MIC (Staphylococcus aureus; Staphylococcus aureus, MSSA, sa005, MSSA, read-out: MIC): 8 µg/mL (≈ 36 µM) | MIC (Staphylococcus aureus; Staphylococcus aureus, MSSA, sa006, MSSA, read-out: MIC): 8 µg/mL (≈ 36 µM) | MIC (Staphylococcus aureus; [20]): 8 µg/mL (≈ 36 µM) | MIC (Staphylococcus aureus; Staphylococcus aureus, MSSA, sa008, MSSA, read-out: MIC): 8 µg/mL (≈ 36 µM) | MIC (Staphylococcus aureus; Staphylococcus aureus, MSSA, sa009, MSSA, read-out: MIC): 8 µg/mL (≈ 36 µM) | MIC (Staphylococcus aureus; Staphylococcus aureus, MSSA, sa011, MSSA, read-out: MIC): 8 µg/mL (≈ 36 µM) | MIC (Staphylococcus aureus; Staphylococcus aureus, MSSA, sa012, MSSA, read-out: MIC): 8 µg/mL (≈ 36 µM) | MIC (Staphylococcus aureus; [21]): 8 µg/mL (≈ 36 µM) | MIC50 (Staphylococcus aureus; [22]): 8 µg/mL (≈ 36 µM) | MIC90 (Staphylococcus aureus; [22]): 8 µg/mL (≈ 36 µM) | IC50 (PBP1b; E. coli ECM5497 membranes, Bocillin FL step 0°C for xeruborbactam, 30°C for beta-lactams, read-out: Relative binding IC50, PBP1b): 56 ± 18 µM | IC50 (PBP3 [1]; K. pneumoniae KPM1001 membranes; Bocillin FL step 0°C for xeruborbactam, 30°C for beta-lactams; read-out: Relative binding IC50, PBP3): 55 ± 8 µM | IC50 (PBP2; K. pneumoniae KPM1001 membranes, Bocillin FL step 0°C for xeruborbactam, 30°C for beta-lactams, read-out: Relative binding IC50, PBP2): 51 ± 15 µM | IC50 (PBP3 [2]; A. baumannii ACM1320 membranes; Bocillin FL step 0°C for xeruborbactam, 30°C for beta-lactams; read-out: Relative binding IC50, PBP3): 135 ± 40 µM | IC50 (PBP1a [3]; A. baumannii ACM1320 membranes; Bocillin FL step 0°C for xeruborbactam, 30°C for beta-lactams; read-out: Relative binding IC50, PBP1a): 1400 ± 500 nM | IC50 (PBP1a [4]; K. pneumoniae KPM1001 membranes; Bocillin FL step 0°C for xeruborbactam, 30°C for beta-lactams; read-out: Relative binding IC50, PBP1a): 41 ± 6 µM | IC50 (PBP1a [5]; E. coli ECM5497 membranes, Bocillin FL step 0°C for xeruborbactam, 30°C for beta-lactams, read-out: Relative binding IC50, PBP1a): 47 ± 13 µM
